Values after ≈ are worked out from the molar mass of the structure shown. Where two headings read alike, the source gives them in different places. Numbered stars: 1 amine (or outer) side, 2 acyl side, 3 side chain; on linkers, the order of the positions; unused ones are H or OH. Bridge positions count the residues as written; N and C are the ends. Side chains are listed from the residue outwards. Peptide text beside a SMILES is read from it. * marks the point of attachment. C20 diacid = O=C(O)CCCCCCCCCCCCCCCCCCC(=O)*; γGlu = O=C(O)[C@H](CCC(=O)[*:2])N[*:1]
Key:
[1] = target: T1, human amylin 3(a) receptor (human calcitonin receptor + RAMP-3) in BHK570 cells (Homo sapiens, UniProt O60896+P30988); assay: ASSAY (II)a functional assay, human amylin receptor (CRE luciferase); format: cell-based
T1 construct: expressed in transfected cells
T1 sequence (O60896 24-148): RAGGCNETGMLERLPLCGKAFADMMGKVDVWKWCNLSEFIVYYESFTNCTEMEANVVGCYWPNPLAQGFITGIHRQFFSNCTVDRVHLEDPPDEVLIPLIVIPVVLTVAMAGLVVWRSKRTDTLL
T1 sequence (P30988 25-474): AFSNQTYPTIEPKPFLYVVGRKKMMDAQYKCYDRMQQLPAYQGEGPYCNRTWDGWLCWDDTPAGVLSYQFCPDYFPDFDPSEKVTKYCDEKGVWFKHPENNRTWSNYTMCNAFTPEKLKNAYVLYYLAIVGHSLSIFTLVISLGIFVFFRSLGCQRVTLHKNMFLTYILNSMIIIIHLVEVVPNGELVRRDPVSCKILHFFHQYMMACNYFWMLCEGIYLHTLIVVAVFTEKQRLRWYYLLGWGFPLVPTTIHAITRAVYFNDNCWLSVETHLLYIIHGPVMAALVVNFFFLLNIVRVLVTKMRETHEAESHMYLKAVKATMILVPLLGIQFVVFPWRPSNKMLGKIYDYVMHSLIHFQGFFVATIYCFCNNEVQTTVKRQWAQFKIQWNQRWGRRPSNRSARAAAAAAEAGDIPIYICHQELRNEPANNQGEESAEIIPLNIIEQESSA
Method in brief: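 BHK cells stably carrying a CRE-luciferase reporter plus calcitonin receptor, or calcitonin receptor with RAMP-3 for the amylin 3(a) receptor, were seeded and kept overnight at 37° C. Compounds were added in assay medium with 10% FBS and 10 mM Hepes, pH 7.4, for 3 hours at 37° C, then luminescence was counted.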

[2] = target: T2, rat amylin receptor (rat calcitonin receptor + rat RAMP 3) (Rattus norvegicus, UniProt P32214+Q9JJ73); assay: ASSAY (VI) binding to the rat amylin receptor; details: for IC50: binding to rat amylin receptor, read-out: rAmylin-R bind IC50
T2 construct: expressed in transfected cells; host or cells: BHK tk'ts 13 (transient, FuGENE 6), membranes
T2 sequence (P32214 25-479 isoform P32214-2 limits assumed): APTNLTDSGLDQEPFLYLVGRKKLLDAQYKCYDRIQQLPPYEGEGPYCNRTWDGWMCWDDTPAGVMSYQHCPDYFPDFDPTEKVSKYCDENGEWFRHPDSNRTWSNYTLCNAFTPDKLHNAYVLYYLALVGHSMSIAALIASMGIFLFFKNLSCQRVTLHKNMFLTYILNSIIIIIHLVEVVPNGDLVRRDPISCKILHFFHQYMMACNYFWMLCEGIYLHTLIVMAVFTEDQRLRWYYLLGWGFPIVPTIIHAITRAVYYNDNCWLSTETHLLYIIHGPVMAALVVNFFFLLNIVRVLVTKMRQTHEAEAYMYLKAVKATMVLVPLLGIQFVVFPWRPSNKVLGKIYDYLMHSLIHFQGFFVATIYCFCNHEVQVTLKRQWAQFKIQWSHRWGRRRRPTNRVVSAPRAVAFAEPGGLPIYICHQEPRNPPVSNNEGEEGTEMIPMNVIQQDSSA
T2 sequence (Q9JJ73 23-147 partner): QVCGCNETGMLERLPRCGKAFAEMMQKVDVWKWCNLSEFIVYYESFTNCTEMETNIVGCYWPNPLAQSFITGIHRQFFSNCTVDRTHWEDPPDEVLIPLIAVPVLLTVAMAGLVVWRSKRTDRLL
Method in brief: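 Binding to the rat amylin receptor was determined with membrane preparations. The receptor was expressed by transiently transfecting BHK tk′ts 13 cells with rat calcitonin receptor, using FuGENE® 6 (Roche) according to the manufacturer's recommendations. Roughly 48 hours later the cells were harvested and their membranes isolated.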

[3] = ASSAY (IV) determination of solubility; format: physicochemical
Method in brief: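 Polypeptide in water at […] mixed 1:1 with 100 mM buffers of pH 3.0-8.0 (glycylglycine pH 3-5, bistrispropane pH 6-8). Held 18 h at room temperature, then centrifuged; concentration remaining in solution measured by UPLC.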

[4] = hCTR funct. EC50 divided by hAmylin-R funct. EC50
[5] = hCTR funct. EC50 over hAmylin-R funct. EC50
[6] = human functional selectivity: hCTR funct. EC50 / hAmylin-R funct. EC50
[7] = Table 7, rat binding selectivity, rCTR IC50 / rAmylin-R IC50
[8] = Table 7a (preferred compounds), rat binding selectivity, rCTR IC50 / rAmylin-R IC50
[9] = ratio of rCTR bind IC50 to rAmylin-R bind IC50
[10] = bistrispropane buffer, pH 6.5, read-out: Solubility pH 6.5 Concentration
[11] = bistrispropane buffer, pH 7.5, read-out: Solubility pH 7.5 Concentration
[12] = bistrispropane buffer, pH 6.0, read-out: Solubility pH 6.0 Concentration
[13] = bistrispropane buffer, pH 7.0, read-out: Solubility pH 7.0 Concentration
[14] = bistrispropane buffer, pH 8.0, read-out: Solubility pH 8.0 Concentration
[15] = glycylglycine buffer, pH 3.0, read-out: Solubility pH 3.0 Concentration
[16] = glycylglycine buffer, pH 4.0, read-out: Solubility pH 4.0 Concentration
[17] = glycylglycine buffer, pH 5.0, read-out: Solubility pH 5.0 Concentration

| Ratio hCT/hAmylin funct. [1, 4] | Ratio hCT/hAmylin funct. [1, 5] | Ratio hCT/hAmylin funct. [1, 6] | IC50 ([2]; Table 7) [nM] | Ratio rCT/rAmylin binding [2, 7] | Ratio rCT/rAmylin binding [2, 8] | Ratio rCT/rAmylin binding [2, 9] | solubility at 18 h [3, 10] [µM] | solubility at 18 h [3, 11] [µM] | solubility at 18 h [3, 12] [µM] | solubility at 18 h [3, 13] [µM] | solubility at 18 h [3, 14] [µM] | solubility at 18 h [3, 15] [µM] | solubility at 18 h [3, 16] [µM] | solubility at 18 h [3, 17] [µM] | Solubility pH 6.5 Concentration ([3]; pH 6.5 (Table 9a)) | Solubility pH 7.0 Concentration ([3]; pH 7.0 (Table 9a)) | SMILES |
| --- | --- | --- | --- | --- | --- | --- | --- | --- | --- | --- | --- | --- | --- | --- | --- | --- | --- |
| 9.7 | 9.7 | 9.7 | 1.58 | 83.2 | 83.2 | 83.2 | ≥ 200 | ≥ 200 | ≥ 200 | ≥ 200 | ≥ 200 | ≥ 200 | ≥ 200 | ≥ 200 | – | – | CC[C@H](C)[C@H](NC(=O)[C@H](C)NC(=O)CNC(=O)[C@H](Cc1ccccc1)NC(=O)[C@H](CC(N)=O)NC(=O)[C@@H]1CCCN1C(=O)[C@H](CO)NC(=O)[C@H](CO)NC(=O)[C@H](Cc1c[nH]cn1)NC(=O)[C@H](CCCNC(=N)N)NC(=O)[C@H](CC(C)C)NC(=O)[C@H](Cc1ccccc1)NC(=O)[C@H](C)NC(=O)[C@H](C)NC(=O)[C@H](CC(C)C)NC(=O)[C@H](CCCNC(=N)N)NC(=O)[C@H](CCC(N)=O)NC(=O)[C@@H](NC(=O)[C@H](C)NC(=O)[C@@H]1CSSC[C@H](NC(=O)[C@@H](N)CCCCNC(=O)CC[C@H](NC(=O)CCCCCCCCCCCCCCCCCCC(=O)O)C(=O)O)C(=O)N[C@@H](CC(N)=O)C(=O)N[C@@H]([C@@H](C)O)C(=O)N[C@@H](C)C(=O)N[C@@H]([C@@H](C)O)C(=O)N1)[C@@H](C)O)C(=O)N1CCC[C@H]1C(=O)N[C@@H](CO)C(=O)N[C@@H](CO)C(=O)N[C@H](C(=O)N[C@@H](CC(N)=O)C(=O)N[C@H](C(=O)NCC(=O)N[C@@H](Cc1c[nH]cn1)C(=O)N[C@@H](CC(N)=O)C(=O)N[C@H](C(=O)N[C@@H](Cc1ccc(O)cc1)C(N)=O)[C@@H](C)O)C(C)C)[C@@H](C)O [Example 93] (H-K([γGlu-C20 diacid])CNTATCATQRLAAFLRHSSPNFGAIPSSTNVGHNTY-NH2; disulfide 2-7; N-terminus assumed) |
| 21.0 | 21.0 | 21.0 | 0.529 | 117.5 | 117.5 | 117.5 | ≥ 200 | ≥ 200 | ≥ 200 | ≥ 200 | ≥ 200 | ≥ 200 | ≥ 200 | ≥ 200 | – | – | CC[C@H](C)[C@H](NC(=O)[C@H](C)NC(=O)CNC(=O)[C@H](Cc1ccccc1)NC(=O)[C@H](CC(N)=O)NC(=O)[C@@H]1CCCN1C(=O)[C@H](CO)NC(=O)[C@H](CO)NC(=O)[C@H](Cc1c[nH]cn1)NC(=O)[C@H](CCCNC(=N)N)NC(=O)[C@H](CC(C)C)NC(=O)[C@H](Cc1ccccc1)NC(=O)[C@H](CC(N)=O)NC(=O)[C@H](C)NC(=O)[C@H](CC(C)C)NC(=O)[C@H](CCCNC(=N)N)NC(=O)[C@H](CCC(N)=O)NC(=O)[C@@H](NC(=O)[C@H](C)NC(=O)[C@@H]1CSSC[C@H](NC(=O)[C@@H](N)CCCCNC(=O)COCCOCCNC(=O)COCCOCCNC(=O)CC[C@H](NC(=O)CCCCCCCCCCCCCCCCCCC(=O)O)C(=O)O)C(=O)N[C@@H](CC(N)=O)C(=O)N[C@@H]([C@@H](C)O)C(=O)N[C@@H](C)C(=O)N[C@@H]([C@@H](C)O)C(=O)N1)[C@@H](C)O)C(=O)N1CCC[C@H]1C(=O)N[C@@H](CO)C(=O)N[C@@H](CO)C(=O)N[C@H](C(=O)N1CCC[C@H]1C(=O)N[C@H](C(=O)NCC(=O)N[C@@H](CO)C(=O)N[C@@H](CC(N)=O)C(=O)N[C@H](C(=O)N[C@@H](Cc1ccc(O)cc1)C(N)=O)[C@@H](C)O)C(C)C)[C@@H](C)O [Example 96] |
| 33.0 | 33.0 | 33.0 | 2.24 | 71.1 | 71.1 | 71.1 | ≥ 200 | 88 (≈ 415 µg/mL) | ≥ 200 | ≥ 200 | 43 (≈ 203 µg/mL) | ≥ 200 | ≥ 200 | ≥ 200 | ≧200 μM | ≧200 μM | CC[C@H](C)[C@H](NC(=O)[C@H](C)NC(=O)CNC(=O)[C@H](Cc1ccccc1)NC(=O)[C@H](CC(N)=O)NC(=O)[C@@H]1CCCN1C(=O)[C@H](CO)NC(=O)[C@H](CO)NC(=O)[C@H](Cc1c[nH]cn1)NC(=O)[C@H](CCCNC(=N)N)NC(=O)[C@H](CC(C)C)NC(=O)[C@H](Cc1ccccc1)NC(=O)[C@H](CC(N)=O)NC(=O)[C@H](C)NC(=O)[C@H](CC(C)C)NC(=O)[C@H](CCCNC(=N)N)NC(=O)[C@H](CCC(N)=O)NC(=O)[C@@H](NC(=O)[C@H](C)NC(=O)[C@@H]1CSSC[C@H](NC(=O)[C@@H](N)CCCCNC(=O)COCCOCCNC(=O)COCCOCCNC(=O)CC[C@H](NC(=O)CCCCCCCCCCCCCCCCCCC(=O)O)C(=O)O)C(=O)N[C@@H](CC(N)=O)C(=O)N[C@@H]([C@@H](C)O)C(=O)N[C@@H](C)C(=O)N[C@@H]([C@@H](C)O)C(=O)N1)[C@@H](C)O)C(=O)N1CCC[C@H]1C(=O)N[C@@H](CO)C(=O)N[C@@H](CO)C(=O)N[C@H](C(=O)N[C@@H](CC(N)=O)C(=O)N[C@H](C(=O)NCC(=O)N[C@@H](Cc1c[nH]cn1)C(=O)N[C@@H](CC(N)=O)C(=O)N[C@H](C(=O)N[C@@H](Cc1ccc(O)cc1)C(N)=O)[C@@H](C)O)C(C)C)[C@@H](C)O [Example 97] |
| 19.5 | 19.5 | 19.5 | 0.137 | 175.5 | 175.5 | 175.5 | ≥ 200 | ≥ 200 | ≥ 200 | ≥ 200 | 176 (≈ 824 µg/mL) | ≥ 200 | ≥ 200 | ≥ 200 | – | – | CC[C@H](C)[C@H](NC(=O)[C@H](C)NC(=O)CNC(=O)[C@H](Cc1ccccc1)NC(=O)[C@H](CC(N)=O)NC(=O)[C@@H]1CCCN1C(=O)[C@H](CO)NC(=O)[C@H](CO)NC(=O)[C@H](Cc1c[nH]cn1)NC(=O)[C@H](CCCNC(=N)N)NC(=O)[C@H](CC(C)C)NC(=O)[C@H](Cc1ccccc1)NC(=O)[C@H](CC(N)=O)NC(=O)[C@H](C)NC(=O)[C@H](CC(C)C)NC(=O)[C@H](CCCNC(=N)N)NC(=O)[C@H](CCC(N)=O)NC(=O)[C@@H](NC(=O)[C@H](C)NC(=O)[C@@H]1CSSC[C@H](NC(=O)[C@@H](N)CCCCNC(=O)COCCOCCNC(=O)COCCOCCNC(=O)CC[C@H](NC(=O)CCCCCCCCCCCCCCCCCCC(=O)O)C(=O)O)C(=O)N[C@@H](CC(N)=O)C(=O)N[C@@H]([C@@H](C)O)C(=O)N[C@@H](C)C(=O)N[C@@H]([C@@H](C)O)C(=O)N1)[C@@H](C)O)C(=O)N1CCC[C@H]1C(=O)N[C@@H](CO)C(=O)N[C@@H](CO)C(=O)N[C@H](C(=O)N[C@@H](CC(N)=O)C(=O)N[C@H](C(=O)NCC(=O)N1CCC[C@H]1C(=O)N[C@@H](CC(N)=O)C(=O)N[C@H](C(=O)N[C@@H](Cc1ccc(O)cc1)C(N)=O)[C@@H](C)O)C(C)C)[C@@H](C)O [Example 98] |

From patent US9023789B2, “Amylin analogs and pharmaceutical compositions thereof” (Novo Nordisk A/S, priority 2012, dated 2015)
